Measured values: patent publication US6677450B2, “Topoisomerase inhibitors” (Bristol-Myers Squibb Company, priority 2000, dated 2004)

Experiments:
murine P388 cell line = test: In vitro cell-based cytotoxicity: proliferation inhibition, XTT tetrazolium assay; conditions: Mus musculus; P388 cells, 72 h at 37° C., XTT absorbance at 450 nm; read-out: IC50 (drug concentration required to inhibit cell proliferation to 50% of untreated control cells)
Experimental: In Vitro Cell-Based Cytotoxicity Activity
The proliferation inhibition activity against murine P388 cell line was measured as follows. Evaluation of a soluble tetrazolium/formazan assay for cell growth and drug sensitivity in culture, using human and other tumor cell lines, was done according to the procedure described in Cancer Res. 1988, 48, 4827-4833. Cells were plated at 4000 cells/well in 96 well microtiter plates and 24 h later drugs were added and serially diluted. The cells were incubated at 37° C. for 72 h, at which time a tetrazolium dye, XTT, containing phenazine methosulfate was added. A dehydrogenase enzyme in live cells reduced the XTT to a form that absorbs light at 450 nm, which could be quantitated spectrophotometrically. The greater the absorbance the greater the number of live cells. The results are expressed as an IC50, which is the drug concentration required to inhibit cell proliferation (i.e., absorbance at 450 nm) to 50% of that of untreated control cells.

[1] = biological target: T1, purified human topoisomerase I (Homo sapiens, UniProt P11387); test: Topoisomerase I activity (in vitro): compound-induced, topoisomerase I-mediated single strand breaks in PM2 DNA; assay type: biochemical; conditions: 30 minutes at 37° C., agarose gel densitometry, read-out: EC50 (median effective concentration for inducing topoisomerase I-mediated single strand breaks in DNA)
T1 construct: purchased Topogen
T1 sequence (P11387 1-765): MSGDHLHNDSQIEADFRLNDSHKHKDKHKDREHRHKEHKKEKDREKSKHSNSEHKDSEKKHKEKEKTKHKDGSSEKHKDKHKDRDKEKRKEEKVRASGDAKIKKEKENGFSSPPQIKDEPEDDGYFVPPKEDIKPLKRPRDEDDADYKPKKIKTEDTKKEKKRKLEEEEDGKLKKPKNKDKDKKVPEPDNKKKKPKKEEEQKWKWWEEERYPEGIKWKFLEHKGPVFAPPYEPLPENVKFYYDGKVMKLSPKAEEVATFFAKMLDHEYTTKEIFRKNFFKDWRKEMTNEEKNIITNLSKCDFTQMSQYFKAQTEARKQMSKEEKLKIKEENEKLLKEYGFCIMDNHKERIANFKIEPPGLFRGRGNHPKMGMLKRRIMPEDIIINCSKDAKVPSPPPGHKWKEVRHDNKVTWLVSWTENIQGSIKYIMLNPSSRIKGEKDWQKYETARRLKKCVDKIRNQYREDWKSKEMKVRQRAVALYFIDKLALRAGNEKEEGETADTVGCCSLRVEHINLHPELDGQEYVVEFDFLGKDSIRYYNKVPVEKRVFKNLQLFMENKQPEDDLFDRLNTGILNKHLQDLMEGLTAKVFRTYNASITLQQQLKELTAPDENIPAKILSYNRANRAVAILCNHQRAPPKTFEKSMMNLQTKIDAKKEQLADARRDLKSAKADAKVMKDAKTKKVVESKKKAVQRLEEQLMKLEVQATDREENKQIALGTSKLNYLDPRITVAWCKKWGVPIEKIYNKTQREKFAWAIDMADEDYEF
Experimental: Topoisomerase I Activity (In Vitro)
Topoisomerase I activity was measured as described below: The procedure for assaying compound-induced, topoisomerase I-mediated single strand breaks in DNA was essentially that described by Hsiang, et al., (J. Biol Chem. 1985, 260, 14873-14878). Samples dissolved in 100% DMSO as either 10 μM or 10 mg/ml solutions, unless otherwise stated, were diluted in Tris-EDTA buffer. Marine bacteriophage PM2 DNA (Boehringer Mannheim) was also diluted in Tris-EDTA buffer to a concentration of 0.02 μg/μl. Different dilutions of the compound being evaluated were mixed with diluted DNA and this mixture was added to 1000 unit (one unit of enzyme activity is defined as the amount capable of relaxing 100 ng of supercoiled DNA in approximately 30 minutes at 37° C.) aliquots of purified human topoisomerase I (Topogen) in 2× reaction buffer to start the reaction. The compound-DNA-enzyme mixture was incubated for 30 minutes at 37° C. before stopping the reaction with warm stop buffer containing sodium dodecyl sulfate and proteinase K (Sigma). These mixtures were allowed to incubate at 37° C. for another 10 minutes, at which time the mixtures were removed from the waterbath and extracted with a 24:1 mixture of chloroform/isoamyl alcohol. Following centrifugation, aliquots of the aqueous phases were placed in wells of a 0.9% agarose (SeaKem) gel in Tris-borate buffer containing 0.5 μg/ml of ethidium bromide and subjected to electrophoresis for 15 hours to separate the different topological isomers and nicked and broken DNAs. After destaining the gel in water, the ethidium bromide stained DNA reaction products were visualized by exposing the gel to UV irradiation. Negatives of the photographs of the irradiated gels were scanned with a densitometer and areas under the peaks were calculated in order to obtain percent single strand DNA break formation for each sample. A median effective concentration (EC50) was obtained for each compound by interpolation between points of the resulting dose-effect curve which defines the potency of the compound for its effect in inducing topoisomerase I-mediated single strand breaks in DNA.
The topoisomerase I activity for certain compounds of the present invention is shown below in Table I.

melting point: > 300 °C | EC50 [1]: > 100000 nM
Compound: O=C1NC(=O)c2c1c1c3ccc(F)cc3n3c1c1c2c2ccc(F)cc2n1[C@@H]1O[C@H](CO)[C@@H](O)[C@H](O)[C@@H]13 [Example 24, 2,10-Difluoro-12,13-[1,2-β-D-glucopyranosyl]-6,7,12,13-tetrahydro(5H)-indolo-[2,3-a]pyrrolo[3,4-c]carbazole-5,7-dione]
IC50 (murine P388 cell line): 1150 nM
